Assay results published in patent publication US20250122169A1, “PPARG INVERSE AGONISTS AND USES THEREOF” (Flare Therapeutics Inc., priority 2021, published 2025).

Tests used:
[1] = biological target: T1, PPARG/RXRA LBD heterodimer (Homo sapiens, UniProt P37231); test: PPARγ-NCOR1 recruitment assay (TR-FRET); format: biochemical; details: for Emax: 3 h, maximal extent, T0070907 defined as 100%, DMSO 0%, read-out: % NCOR recruitment relative to T907; for EC50: TR-FRET, NCOR1 ID2 peptide, 80 nM Rosiglitazone, 3 hours, read-out: PPARG-NCOR recruitment assay EC50
T1 construct: 2 nM WT PPARG LBD (E. coli expressed, His-TEV-Q203-Y477); fused on or other part: N-terminal His tag with TEV site on the PPARG LBD
Description: Compound potency (EC50) and maximal extent of NCOR1 recruitment to PPARG were assessed a TR-FRET binding assay measuring association of a biotinylated NCOR1 ID2 peptide (Biotin-[…]-amide) to PPARG/RXRA LBD heterodimer.
T1 sequence (O75376 2251-2273 limits assumed, one chain of several, further chain): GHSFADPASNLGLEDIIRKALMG

[2] = biological target: T2, PPARG/RXRA LBD heterodimer (Homo sapiens, UniProt P37231); test: PPARγ-MED1 blockade assay (TR-FRET); format: biochemical; details: for EC50: TR-FRET, MED1 LxxLL peptide, 80 nM Rosiglitazone, 3 hours; for Emax: maximal extent, GW9662 defined as 100%, DMSO 0%, read-out: % MED1 blockade relative to GW9662
T2 construct: His-TEV-Q203-Y477; Uniprot ID P37231-2; made in house; host or cells: E. coli
T2 sequence (P37231 203-477 isoform P37231-2): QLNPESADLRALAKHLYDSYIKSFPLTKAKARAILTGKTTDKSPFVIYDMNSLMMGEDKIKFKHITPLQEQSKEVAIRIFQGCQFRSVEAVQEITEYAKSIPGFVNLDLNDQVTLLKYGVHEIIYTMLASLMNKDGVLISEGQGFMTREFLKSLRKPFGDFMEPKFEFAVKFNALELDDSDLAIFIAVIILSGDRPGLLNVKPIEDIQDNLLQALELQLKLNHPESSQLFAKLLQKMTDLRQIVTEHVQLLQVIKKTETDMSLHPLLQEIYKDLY
T2 sequence (P19793 228-462 partner limits assumed): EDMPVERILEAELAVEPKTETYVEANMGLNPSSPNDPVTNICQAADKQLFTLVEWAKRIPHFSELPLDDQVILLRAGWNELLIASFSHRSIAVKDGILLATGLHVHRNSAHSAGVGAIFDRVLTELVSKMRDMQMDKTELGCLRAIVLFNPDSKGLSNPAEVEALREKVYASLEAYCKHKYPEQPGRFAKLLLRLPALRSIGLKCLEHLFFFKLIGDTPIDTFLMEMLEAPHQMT
Description: Compound potency (IC50) and maximal extent of MED1 repulsion to PPARG were assessed a TR-FRET binding assay measuring association of a biotinylated MED1 LxxLL peptide (Biotin-[…]-amide) to PPARG/RXRA LBD heterodimer.

[3] = test system: ANGPTL4, a PPARG target gene, in HT1197 (RXRA S427F mutation) cells; test: Bladder cancer pharmacodynamic assay, HT1197 cell assay (qPCR of PPARG target gene ANGPTL4); format: cell-based; details: Homo sapiens; for EC50: 24 hours treatment, qPCR; for inhibition at 0.1 µM: read-out: % inhibition of ANGPTL4 @ 100 nM, 100 nM compound, 24 hours, relative to DMSO control
Description: Quantitative PCR was performed using an ABI QuantStudio 7 Flex Reaction system. Data were analyzed and reported relative to DMSO control using the comparative Ct method (ΔΔCt).

Compound: CN1CCN(c2c(F)cc3[nH]c(-c4cc(C#N)ncc4Cl)cc(=O)c3c2F)CC1 [Example 15, 5-chloro-4-(5,7-difluoro-6-(4-methylpiperazin-1-yl)-4-oxo-1,4-dihydroquinolin-2-yl)picolinonitrile]
- Emax [1]: > 100%
- EC50 [1]: 10 to 100 nM
- EC50 [2]: 10 to 100 nM
- Emax [2]: > 100%
- EC50 [3]: 3.1 nM
- inhibition at 0.1 µM [3]: 81%

Compound: CN(C)C(=O)[C@H]1CCCN(c2c(F)cc3[nH]c(-c4cc(C#N)ncc4S(C)(=O)=O)cc(=O)c3c2F)C1 (single isomer, unassigned) [Example 34]
- Emax [1]: > 100%
- EC50 [1]: < 10 nM
- EC50 [2]: < 10 nM
- Emax [2]: > 100%
- inhibition at 0.1 µM [3]: 87%

Compound: N#Cc1ncc(Cl)c(-c2cc(=O)c3c(F)cc(F)cc3[nH]2)n1 [Example 33, 5-chloro-4-(5,7-difluoro-4-oxo-1,4-dihydroquinolin-2-yl)pyrimidine-2-carbonitrile]
- Emax [1]: > 100%
- EC50 [1]: < 10 nM
- EC50 [2]: < 10 nM
- Emax [2]: > 100%
- inhibition at 0.1 µM [3]: 31%

Compound: N#Cc1cnc(Cl)c(-c2cc(=O)c3c(F)cc(F)cc3[nH]2)c1 [Example 27, 6-chloro-5-(5,7-difluoro-4-oxo-1,4-dihydroquinolin-2-yl)nicotinonitrile]
- Emax [1]: > 100%
- EC50 [1]: 10 to 100 nM
- EC50 [2]: 10 to 100 nM
- Emax [2]: > 100%
- inhibition at 0.1 µM [3]: 70%

Compound: N#Cc1ccc(Cl)c(-c2cc(=O)c3c(F)cc(F)cc3[nH]2)n1 [Example 3, 5-chloro-6-(5,7-difluoro-4-oxo-1,4-dihydroquinolin-2-yl)picolinonitrile]
- Emax [1]: > 100%
- EC50 [1]: < 10 nM
- EC50 [2]: < 10 nM
- Emax [2]: > 100%
- EC50 [3]: 0.09 nM
- inhibition at 0.1 µM [3]: 95%

Compound: CN(C)C(=O)[C@@H]1CCN(c2c(F)cc3[nH]c(-c4cc(C#N)ncc4Cl)cc(=O)c3c2F)C1 [Example 25, (R)-1-(2-(5-chloro-2-cyanopyridin-4-yl)-5,7-difluoro-4-oxo-1,4-dihydroquinolin-6-yl)-N,N-dimethylpyrrolidine-3-carboxamide]
- Emax [1]: > 100%
- EC50 [1]: < 10 nM
- EC50 [2]: < 10 nM
- Emax [2]: > 100%
- inhibition at 0.1 µM [3]: 86%

Compound: N#Cc1cc(-c2cc(=O)c3c(F)c(N4CCS(=O)(=O)CC4)c(F)cc3[nH]2)c(Cl)cn1 [Example 18, 5-chloro-4-(6-(1,1-dioxidothiomorpholino)-5,7-difluoro-4-oxo-1,4-dihydroquinolin-2-yl)picolinonitrile]
- Emax [1]: > 100%
- EC50 [1]: 10 to 100 nM
- EC50 [2]: 10 to 100 nM
- Emax [2]: > 100%
- inhibition at 0.1 µM [3]: 57%

Compound: CCSc1cnc(C#N)cc1-c1cc(=O)c2c(F)cc(F)cc2[nH]1 [Example 12, 4-(5,7-difluoro-4-oxo-1,4-dihydroquinolin-2-yl)-5-(ethylthio)picolinonitrile]
- Emax [1]: < 100%
- EC50 [1]: > 10000 nM
- EC50 [2]: > 10000 nM
- Emax [2]: < 100%
- inhibition at 0.1 µM [3]: 18%

Compound: CN1CCN(c2c(F)cc3[nH]c(-c4nc(C#N)ccc4Cl)cc(=O)c3c2F)CC1 [Example 13, 5-chloro-6-(5,7-difluoro-6-(4-methylpiperazin-1-yl)-4-oxo-1,4-dihydroquinolin-2-yl)picolinonitrile]
- Emax [1]: > 100%
- EC50 [1]: 10 to 100 nM
- EC50 [2]: 10 to 100 nM
- Emax [2]: > 100%
- inhibition at 0.1 µM [3]: 78%

Compound: CS(=O)(=O)c1cnc(C#N)cc1-c1cc(=O)c2c(F)cc(Cl)cc2[nH]1 [Example 31, 4-(7-chloro-5-fluoro-4-oxo-1,4-dihydroquinolin-2-yl)-5-(methylsulfonyl)picolinonitrile]
- Emax [1]: > 100%
- EC50 [1]: < 10 nM
- EC50 [2]: < 10 nM
- Emax [2]: > 100%
- inhibition at 0.1 µM [3]: 86%

Compound: CN1CCN(c2c(F)cc3[nH]c(-c4cc(C#N)ncc4Cl)cc(=O)c3c2F)CC1=O [Example 24, 5-chloro-4-(5,7-difluoro-6-(4-methyl-3-oxopiperazin-1-yl)-4-oxo-1,4-dihydroquinolin-2-yl)picolinonitrile]
- Emax [1]: > 100%
- EC50 [1]: 10 to 100 nM
- EC50 [2]: 10 to 100 nM
- Emax [2]: > 100%
- inhibition at 0.1 µM [3]: 87%
